Reference: patent US11369609B2, “Small molecule Wnt inhibitor as treatment for dyslipidemia” (Yale University, priority 2019, dated 2022)

Tested on: canonical Wnt signaling
Test: Renal fibrosis in diabetic GR^ECKO and control littermate mice treated with Wnt inhibitor
Type: in vivo
Procedure: All experiments were performed in accordance with the National Institute of Health (NIH) Guidelines for the Care of Laboratory Animals. Mice lacking the endothelial glucocorticoid receptor (GR) (known as GR^ECKO) and those lacking this receptor on the Apo E null background (DKO) were generated as previously described (6). The induction of diabetes in CD-1 mice and C57B/L6 mice was performed according to previously established experimental protocols (38-42). Briefly, diabetes was induced in 10-week-old GR^ECKO mice with five consecutive intraperitoneal (IP) doses of streptozotocin (STZ) 50 mg/kg in 10 mmol/L citrate buffer (pH 4.5). Wnt inhibitor (LGK974) was provided to GR^ECKO and control littermate at 5 mg/kg at a frequency of six doses per week for 8 weeks (43). Etomoxir (20 mg/kg) and c75 (15 mg/kg) were dosed (ip) three times per week for 3 weeks in the GR^ECKO and control littermate. A single IP dose of 200 mg/kg STZ was used to induce diabetes in CD-1 mice. Fenofibrate (100 mg/kg), simvastatin (40 mg/kg), were dosed orally for 4 weeks in diabetic CD-1 mice. All mice were sacrificed after 4 weeks of treatment and tissues and blood were harvested. Urine albumin levels were assayed using a Mouse Albumin ELISA Kit (Exocell, Philadelphia, Pa.).
A point-counting method was utilized to evaluate the relative area of the mesangial matrix. PAS-stained glomeruli from each mouse were analyzed using a digital microscope screen grid containing 540 (27×20) points. Masson's trichrome-stained images were evaluated by ImageJ software, and the fibrotic areas were estimated.
Deparaffinized sections were incubated with picrosirius red solution for 1 hour at room temperature. The slides were washed twice with acetic acid solution for 30 seconds per wash. The slides were then dehydrated in absolute alcohol three times, cleared in xylene, and mounted with a synthetic resin. Sirius red staining was analyzed using ImageJ software, and fibrotic areas were quantified.
Frozen kidney sections (5 μm) were used for immunofluorescence; double positive labeling with CD31/αSMA, CD31/TGFβR1 and E-cadherin/αSMA was measured. Briefly, frozen sections were dried and placed in acetone for 10 min at −30° C. Once the sections were dried, they were washed twice in phosphate-buffered saline (PBS) for 5 min and then blocked in 2% bovine serum albumin/PBS for 30 min at room temperature. Thereafter, the sections were incubated in primary antibody (1:100) for 1 hour and washed in PBS (5 min) three times. Next, the sections were incubated with the secondary antibodies for 30 min, washed with PBS three times (5 min each), and mounted with mounting medium with DAPI (Vector Laboratories, Burlingame, Calif.). The immune-labeled sections were analyzed by fluorescence microscopy. For each mouse, original magnification of ×400 pictures were obtained from six different areas, and quantification was performed.
Frozen sections (5 μm) were used for the detection of EndMT and EMT. Cells undergoing EndMT were detected by double-positive labeling for CD31 and αSMA and/or TGFβR1. Cells undergoing EMT were detected by double-positive labeling for E-cadherin and αSMA. Sections were analyzed and quantified by fluorescence microscopy.
To determine whether Wnt inhibition could mitigate the renal fibrosis observed in diabetic mice lacking endothelial GR, a cohort of animals was treated with the Wnt inhibitor, LGK974. At the age of 8 weeks, control and GR^ECKO mice were injected with STZ 50 mg/kg for five consecutive days. Sixteen weeks after injection, LGK974 was administered by oral gavage for eight additional weeks (FIG. 16A).

[1] = diabetic control vs diabetic GR^ECKO mice

## Cc1cc(-c2ncc(CC(=O)Nc3ccc(-c4cnccn4)cn3)cc2C)ccn1 [LGK974]
GR^ECKO vs mouse model of diabetic kidney disease
  effect on Wnt signaling, fibrogenic phenotype and endothelial GR level in GR^ECKO: less evident
At sacrifice, among the groups, LGK974 oral gavage 8 weeks
  body weight: no differences
Control and diabetic GR^ECKO mice
  level of EMT (E-cadherin/αSMA co-positive cells): significantly reduced
Diabetic GR^ECKO and DKO mice (legend of FIG. 16)
  renal fibrosis: partially abrogates the renal fibrosis
Diabetic GR^ECKO and diabetic control mice
  kidney weight: significant reduction
Diabetic GR^ECKO mice
  EndMT (CD31/αSMA co-positive cells): less pronounced
  relative area of fibrosis: less pronounced, though still significant
  relative collagen deposition: less pronounced, though still significant
  tubular damage: less pronounced, though still significant
Diabetic control mice
  EndMT (CD31/αSMA co-positive cells): significantly suppressed
  relative area of fibrosis: clearly improved
  relative collagen deposition: clearly improved
  tubular damage: clearly improved
[1]
  staining of fibronectin: A similar pattern was observed
  staining of β-catenin: A similar pattern was observed
